Experimental findings from patent publication US11053175B2, “Thioether compounds as nitrification inhibitors” (BASF SE, priority 2015, dated 2021) are described below.

For one assay, the system named is nitrification in soil. Kind of assay: Inhibition of nitrification in soil (48 well plate, ammonium sulfate, colour reaction read at 540 nm). The format is cell-based. The note with it: dose of 3% a.i./NH, best value obtained, read-out: IN (best inhibition value, inhibition of nitrification = 100 - % activity compared to control).
For orientation: inhibition means the share of the control response that was lost under treatment. `C#CCSc1sc2ccccc2[n+]1C` [Compound 2-1]: the inhibition at 3 % strength came out at 20%.
As to `C#CCS/C(N)=N\N=C\c1ccc(N(C)C)cc1` [Compound 2-2], the inhibition at 3 % strength turned out to be 20%.
In the case of `C#CC[S+]([O-])Cc1ccc(OC)cc1` (stereo not shown) [Compound 2-3], the inhibition at 3 % strength came to 23%.
Consider `C#CCS(=O)(=O)Cc1ccccc1` [Compound 2-4], for which the inhibition at 3 % strength is 23%.
Consider `C#CC[S+]([O-])Cc1ccc(Cl)cc1` (stereo not shown) [Compound 2-5], for which the inhibition at 3 % strength was 24%.
As for `C#CCSCc1ccc(Cl)cc1` [Compound 2-6], the inhibition at 3 % strength amounted to 28%.
Regarding `C#CCSCc1ccccc1` [Compound 2-7], the inhibition at 3 % strength worked out at 28%.
As to `C#CCSc1nnc(N)s1` [Compound 2-8], the inhibition at 3 % strength came to 38%.
On the same count and under the same terms, the value for `C#CCSc1ccccc1` [Compound 2-9] was 48%; that for `C#CCSCC#C` [Compound 2-10] was 97%.

A further assay deals with nitrification in soil. The assay is described as above. To be noted: 72 h, dose of 10 ppm; soil, up to 72 hrs at room temperature; control DMSO only; best value obtained; read-out: IN (best inhibition value, inhibition of nitrification = 100 - % activity compared to control). Format: cell-based. As to the method:
The compounds of the invention have been tested as follows in terms of the inhibition of nitrification: Soil was sampled fresh from a field (e.g. Limburgerhof), dried and sieved through a 500 μm sieve. Approximately 200 mg of soil were placed into each well of a 48 well plate. Compounds, or DMSO alone, were added at a concentration of 10 ppm, dissolved in 1% DMSO. 6 μmol ammonium sulfate was added per well as well as 4.8 mg NaClO3.
Subsequently, the samples were incubated at room temperature for up to 72 hrs. After the incubation period 64 mg KCl were added and mixed. 25 μl of the supernatant were placed into a fresh plate and 260 μl of a color reaction solution (from Merck Nr 1.11799.0100) were added.
Measurements were taken with a Tecan plate Reader at 540 nm wavelength.
Inhibition is calculated as x=% activity compared to control, and converted to 100-x to give the value of inhibition, rather than activity.
As to `C#CCS/C(N)=N\N=C\c1ccc(OC)cc1` [Compound 1-1], the inhibition at 10 ppm turned out to be 42%.
Same read-out and setting: the value for `C#CCSC1=NCCN1/N=C/c1ccc(C)cc1` [Compound 1-3] was 68%.
Still for that read-out and setting: the value for `C#CCSc1ncccn1` [Compound 1-6] was 59%; that for `C#CC[S+]([O-])CC#C` [Compound 1-7] was 72%; that for `C#CCS(=O)(=O)CC#C` [Compound 1-8] was 70%.
Turning to `C#CCS/C(C)=N\O` [Compound 1-9], the inhibition at 10 ppm came to 67%.
Same read-out and setting: next, `C#CCS/C(N)=N\N=C\c1ccc(F)cc1` [Compound 1-10]: 59%; `C#CCSc1nc2ccsc2c(=O)n1C` [Compound 1-11]: 55%; `C#CCSc1nc2c(cc1C#N)CCC2` [Compound 1-12]: 52%.
Turning to `C#CCSc1nnc(S)s1` [Compound 1-13], the inhibition at 10 ppm stood at 51%.
Turning to `C#CCSC1=NNC(c2ccccn2)S1` (stereo not shown) [Compound 1-17], the inhibition at 10 ppm worked out at 46%.
Consider `C#CCSc1sc2ccccc2[n+]1C` [Compound 1-18], for which the inhibition at 10 ppm was found to be 44%.
For the compound `C#CCSc1nccn1-c1ncc(C(F)(F)F)cc1Cl` [Compound 1-19], the inhibition at 10 ppm was determined as 42%.
On the same count and under the same terms, next, `C#CCCS/C(C)=N\O` [Compound 1-20]: 48%; `C#CCSc1cnccn1` [Compound 1-21]: 69%; `C#CCSc1cnc2ccccc2n1` [Compound 1-23]: 33%.

The assay is the same for the next values; noted with them: dose of 10 ppm; soil, up to 72 hrs at room temperature; control DMSO only; best value obtained.
Take `C#CCSc1sc2ccccc2[n+]1C.[Br-]` [Compound 1-22]: the “IN (best inhibition value, inhibition of nitrification = 100 - % activity compared to control)” value was 42%.

The same assay, now with this note: reference compound, same conditions, dose of 10 ppm; read-out: IN (inhibition value, inhibition of nitrification).
On to `C#Cc1ccccc1` [Phenylacetylene, phenylacetylene, reference compound], for which the inhibition at 10 ppm was 7%.
